Converted amounts (≈) assume the structure as drawn. Read-outs that look alike come from different tables or passages of the source.
What was measured:
AML-12 cells [1] = assay: CCK-8 assay, toxic effects on AML-12 cells; type: cell-based; settings: for IC50: CCK-8, treatment 24 h, read-out: IC50 toward AML12 cells
Procedure: To uncover the potential hepatotoxic components, CCK-8 assay was performed toevaluate the toxic effects of 9 chemicals in PF on AML-12 cells. With the treatment […]
AML-12 cells were seeded into 96-well plates for 24 h until they visibly reached confluence. Then, AML-12 cells were treated with different concentrations of the nine chemical compounds in PF for 24 h. The multiple concentrations of each compound […]
wells were set up for each group. After treatment, AML-12 cells were washed with PBS buffer gently and incubated with DMEM/F12 medium containing 10% CCK-8 solution for 0.5-2 h. OD value was measured with live cell imaging system (Cytation 5,BioTek, USA) at 450 nm.
Cell viability (%) = [(OD value of the experimental group − OD value of the blank group)/ (OD value of the control group − OD value of the blank group)] ×

AML-12 cells [2] = assay: High-content screening of mitotoxic endpoints (MMP by TMRM, mitochondrial superoxide by MitoSOX Red); settings: 15 μmol/L, 24 h; for mitochondrial toxicity, overall ranking among 9 phytochemicals: MMP and mitochondrial superoxide taken together; for fluorescence intensity of Mitosox red (mitochondrial superoxide): versus control
Procedure: AML-12 cells were purchased from Procell (CL-0602, Wuhan, China) and cultured in cultured in DMEM/F12 medium (Gibco, Thermo Fisher Scientific, USA) with the supplement of 10% fetal bovine serum (FBS, Biological Industrials) and 1% penicillin/streptomycin (FG101-01, Transgene, China). AML-12 cells were maintained in a humidified incubator containing 5% CO2 at 37 °C.
AML-12 cells were seeded into 96-well plates and incubated at 37 °C in an atmosphere containing 5% CO2 for 12 h until they visibly reached confluence. After the cells were treated with the same concentration of each drug (15 μmol/L) for 24 h, the supernatants were removed from the cell plates and the fluorescent dyes were added. Hoechst 33,342 was applied to characterize cell counts and nuclear area. TMRM and MitoSOX™ Red were applied to characterize mitochondrial membrane potential (MMP) and mitochondrial superoxides, respectively. Then, the multi-parameter cytotoxicities were measured by a high content imaging system (Molecular Devices, Metaxpress) and subsequent data analysis was performed by Harmony 3.0 Software (Perkin Elmer, Waltham, MA, USA). Each experiment was assayed in triplicate wells and three independent replicates.

[3] = Solubility in DMEM/F12 culture medium; settings: aqueous buffer, kinetic from dmso stock

Compound | IC50 (AML-12 cells [1]; Mus musculus, AML12) | mitochondrial toxicity, overall ranking among 9 phytochemicals (AML-12 cells [2]) | fluorescence intensity of Mitosox red (mitochondrial superoxide) (AML-12 cells [2]) | toxicity to AML-12 cells (AML-12 cells [1]) | solubility [3] | IC50 (AML-12 cells [1])
C=C[C@@](C)(/C=C/c1ccc(O)cc1)CCC=C(C)C [bakuchiol] | 35 µM | most potent mitochondrial toxicities | prominently promoted | – | – | –
CC(C)=CCc1cc2c(cc1O)O[C@H](c1ccc(O)cc1)CC2=O [bavachin, Bavachin] | 33.2 µM | most potent mitochondrial toxicities | prominently promoted | – | – | –
CC(C)=CCc1c(O)ccc(C(=O)/C=C/c2ccc(O)cc2)c1O [isobavachalcone] | 28.9 µM | most potent mitochondrial toxicities | prominently promoted | – | – | –
O=c1ccc2ccc3occc3c2o1 [isopsoralen] | – | – | – | no obvious toxicity | 800 µM (≈ 149 µg/mL) | –
CC(C)=CCc1cc2c(cc1O)oc(=O)c1c3ccc(O)cc3oc21 [psoralidin, Psoralidin] | – | – | prominently promoted | – | – | 17.7 µM
Corylin | – | – | – | – | – | 34.4 µM
bavachinin | – | – | – | – | – | 60.2 µM

— PMC10799058, “Exploring the mechanism and phytochemicals in Psoraleae Fructus-induced hepatotoxicity based on RNA-seq, in vitro screening and molecular docking” (Scientific Reports, 2024)
